102 compounds from ChEMBL document CHEMBL3507680, “University of Dundee, Gates Library screen for HepG2 cell viability” can be followed below.

A short description of this series: Human HepG2 cell viability assay in 384 well format. Conditions: HepG2 cells, read-out: Inhibition. Further details: dose 125 nL, time 70.5 hour; cytotoxicity at 70.5 h: concentration not given beside the values. In kind it is toxicity, cell-based.

`CCC(=O)N1CCN(C(=O)NCc2c(C)cc(C)cc2C)CC1`: the cytotoxicity at 70.5 h is -11.6%. Turning to `NC(=O)Nc1cc(F)ccc1SCC(F)F`, the cytotoxicity at 70.5 h is -8.84%. For the compound `CCC(CO)NC(=O)Nc1cc(F)ccc1SCC(F)F` (configuration not stated), the cytotoxicity at 70.5 h was -11.1%.

Turning to `CN(c1cccnc1N1CCCC1)S(=O)(=O)c1cccnc1`, the cytotoxicity at 70.5 h was found to be 3.33%. As to `Cc1cnn(-c2ccc(S(=O)(=O)N(C)CC(C)(CO)CO)cc2F)c1`, the cytotoxicity at 70.5 h stood at 17.1%. For the compound `COCCNC(=O)CCNc1ccc(Cl)cn1`, the cytotoxicity at 70.5 h is -6.53%. Consider `COc1cccc([S+]([O-])CC(=O)NCc2cc(F)cc(F)c2)c1` (configuration not stated), for which the cytotoxicity at 70.5 h was -1.69%. Consider `c1cnc2nc(N3CCc4c(ncn4C4CC4)C3)ccc2n1`, for which the cytotoxicity at 70.5 h is -6.09%. `CN(CCN1CCN(c2ccccc2)CC1)C(=O)Nc1ccncc1`: the cytotoxicity at 70.5 h is -3.63%. Under `Cc1nc(CN2CCCN(CC(=O)N(C)CCC#N)CC2)no1` stands -9.21%; under `C[S+]([O-])c1ccc(CNc2ccc(F)cc2OC(F)F)cc1` (configuration not stated), -0.988%; under `OC1(CNCc2ccc(F)c(C(F)(F)F)c2)CCSCC1`, -7.48%. For the compound `CCCC(C)N(C)Cc1nnc(-c2ccc(Br)s2)o1` (configuration not stated), the cytotoxicity at 70.5 h is -4.09%. `Cc1cnn(C2CCCN(C(=O)CN(C)c3cnccn3)C2)c1` (configuration not stated): the cytotoxicity at 70.5 h is -2.8%. Under `CCOCCC(=O)NC(Cc1ccc(C)cc1)c1ccccn1` (configuration not stated) stands 0.116%; under `CCCn1nc(C(=O)NCCc2nnc3n2CCC3)ccc1=O`, 1.09%; under `CC(C1CC1)N(C)Cc1nnc(-c2ccc(Br)s2)o1` (configuration not stated), -2.75%. On to `CN(Cc1ccc(Cl)s1)C(=O)NCCC(=O)N1CCCCCC1`, for which the cytotoxicity at 70.5 h is -4.9%. Take `Cc1ccc(S(=O)(=O)Nc2cccnc2O)cc1C`: the cytotoxicity at 70.5 h is -0.331%. For `C=C(C)CN(CC)C(=O)c1cc(Cl)ccc1NS(C)(=O)=O`, the cytotoxicity at 70.5 h is -0.344%. Turning to `O=C1NCCCCC1NC(=O)C1(c2cccc(C(F)(F)F)c2)CC1` (configuration not stated), the cytotoxicity at 70.5 h was 0.452%. Then `O=C(OCCNc1ncccn1)c1ccc(Br)s1`, with -0.709%; and `COc1ccc(CCNC(=O)C2CCOC2)c(Cl)c1` (configuration not stated), with -2.75%. `CNC(=O)c1ccc(NC(=O)NC(C)CCc2cccn2C)c(C)c1` (configuration not stated): the cytotoxicity at 70.5 h is -0.342%. Regarding `Cc1cc(C)n(C2CCCN(C(=O)CN(C)C3CC3)C2)n1` (configuration not stated), the cytotoxicity at 70.5 h is -3.88%. As for `CC(C)CCN(C(=O)Nc1cccc(C(=O)N(C)C)c1)C1CC1`, the cytotoxicity at 70.5 h is -7.58%. Then `Cc1nnc(C(C)N2CCCN(Cc3noc(C4CC4)n3)CC2)o1` (configuration not stated), with 13.7%.

As for `O=C(Cn1ccc(=O)[nH]c1=O)NCc1cccnc1OCC(F)(F)F`, the cytotoxicity at 70.5 h was -10.1%. Take `Cn1cnnc1C1CCCN(c2nc3ccccc3o2)C1` (configuration not stated): the cytotoxicity at 70.5 h amounted to 0.708%. With `CC(C)CN(C(=O)Nc1cccc(C(=O)N(C)C)c1)C1CC1`, the cytotoxicity at 70.5 h is -10.3%. Then `COc1ccc(OC)c(C(=O)Nc2cccnc2-n2cncn2)c1`, with -10.9%; and `CC(C)c1ccc(S(=O)(=O)NC2CCN(CC(F)(F)F)C2)cc1` (configuration not stated), with 16.7%.

`CC(C)c1noc(C(C)N2CCN(Cc3noc(C4CC4)n3)CC2)n1` (configuration not stated): the cytotoxicity at 70.5 h was -10.9%.

As for `CCN(Cc1ccoc1)C(=O)Nc1ccccc1CN(C)C(C)=O`, the cytotoxicity at 70.5 h stood at 22%. Take `CC(C(=O)Nc1cccc(F)c1)N(C)CCN1CCOCC1` (configuration not stated): the cytotoxicity at 70.5 h is -4.4%. For the compound `CCCc1cc(N(CCOC)CC(F)F)n2ncnc2n1`, the cytotoxicity at 70.5 h was determined as 18.6%. As to `O=S(=O)(NC1CCN(CC(F)(F)F)C1)c1cc(F)cc(F)c1` (configuration not stated), the cytotoxicity at 70.5 h is 12.7%. Turning to `COCCN(CC(F)F)c1cc(COC)nc2ncnn12`, the cytotoxicity at 70.5 h was -9.69%. Turning to `CCc1oc(C(=O)OC)cc1Cn1cccc(C(F)(F)F)c1=O`, the cytotoxicity at 70.5 h was -1.62%. As to `COC(=O)c1sc(C(NC(=O)c2ccccc2)C2CC2)nc1C` (configuration not stated), the cytotoxicity at 70.5 h was -3.65%.

Take `CSc1ncccc1C(=O)NC(C)c1cccc(N2CCOC2=O)c1` (configuration not stated): the cytotoxicity at 70.5 h is -10.4%. With `CC(C)(C)C(NC(=O)CCS(C)(=O)=O)c1ccc(F)cc1F` (configuration not stated), the cytotoxicity at 70.5 h was -6.93%. Regarding `CC(C)(C)C(NC(=O)CCCS(C)(=O)=O)c1ccc(F)cc1F` (configuration not stated), the cytotoxicity at 70.5 h is -0.26%.

Take `COc1cccc2c1CCCCN2C(=O)c1oc(C)nc1C`: the cytotoxicity at 70.5 h turned out to be 0.154%. On to `CC(C)N(CC(=O)Nc1cccc(C#N)c1)C1CC1`, for which the cytotoxicity at 70.5 h is -4.01%. Regarding `Cc1nc(CN(C)S(=O)(=O)c2ccccc2Br)no1`, the cytotoxicity at 70.5 h is -3.75%. Regarding `CCc1noc(C(C)N2CCCN(Cc3noc(C4CC4)n3)CC2)n1` (configuration not stated), the cytotoxicity at 70.5 h was -13.5%. Turning to `Cc1cnn(CC(C)NCC(=O)Nc2ccc(Cl)cn2)c1` (configuration not stated), the cytotoxicity at 70.5 h was -2.39%. With `CN(CC(=O)NC(C)(C)C)C(=O)c1cccn1CCc1ccccc1`, the cytotoxicity at 70.5 h amounted to 5.51%.

`Cc1ccc(-c2csc(-c3cccc(C(=O)O)c3)n2)cc1`: the cytotoxicity at 70.5 h was determined as 19.5%. With `COc1ccccc1OCCNC(=O)NCC(C)C`, the cytotoxicity at 70.5 h was -12.4%. For the compound `NC(=O)CSc1ccccc1NCc1nc(Cc2ccccc2)no1`, the cytotoxicity at 70.5 h was -6.14%.

In the case of `Cc1cc(CNC(=O)NCC(O)c2cccc(F)c2)no1` (configuration not stated), the cytotoxicity at 70.5 h is -10.8%. In the case of `Cc1ccc(CN2CCC(CNC(=O)Cn3cncn3)CC2)cc1`, the cytotoxicity at 70.5 h was -6.33%. `COc1ccc(CN2CCN(Cc3nccn3C)C(C)C2)cc1F` (configuration not stated): the cytotoxicity at 70.5 h was -9.42%. Then `CC(C)CC1COCCN1C(=O)Cc1cccs1` (configuration not stated), with -4.92%; and `CCc1nc(CN(C)C2CCN(Cc3ccc(Cl)s3)C2)no1` (configuration not stated), with 8.41%; and `Fc1ccc(CNCc2nnc3n2CC(C(F)(F)F)CC3)cc1` (configuration not stated), with -13.6%. For the compound `CC(C(=O)Nc1sccc1C(N)=O)N(C)CCOc1ccccc1` (configuration not stated), the cytotoxicity at 70.5 h is -20.6%. Turning to `O=C(c1cn(-c2ccccc2C(F)(F)F)nn1)N1CCSCC1`, the cytotoxicity at 70.5 h was -15.5%. For the compound `Cc1noc(C)c1CCC(=O)N1CCCCC1CNS(C)(=O)=O` (configuration not stated), the cytotoxicity at 70.5 h was -7.67%.

`Cc1ccc(C(=O)NCc2cccnc2-n2cncn2)cc1S(C)(=O)=O`: the cytotoxicity at 70.5 h is 17.5%. Turning to `CCSc1cc(C(=O)NC2CCN(C(=O)c3ccccc3)CC2)ccn1`, the cytotoxicity at 70.5 h is -17.6%. Consider `CN(C)c1ccc(C(=O)NCc2cccnc2-n2cncn2)cc1F`, for which the cytotoxicity at 70.5 h was -17.5%.

Consider `O=S(=O)(Cc1ccccc1F)N1CCCC1c1nnc2n1CCCCC2` (configuration not stated), for which the cytotoxicity at 70.5 h was -6.25%. As for `O=C(c1cccnc1O)N1CCN(Cc2ccccc2F)CC1`, the cytotoxicity at 70.5 h is 17.4%. Under `O=C(c1ccn(-c2ccccc2Cl)n1)N1CCCSCC1` stands -3.62%; under `Cc1cc(C)n(-c2cncc(NCCNS(C)(=O)=O)n2)n1`, 2.9%; under `Cc1cc(C)n(-c2cncc(NCCNC(=O)c3cccnc3)n2)n1`, -3.57%.

With `O=C(c1cn(-c2ccccc2Cl)nn1)N1CCN(CCO)CC1`, the cytotoxicity at 70.5 h is -5.32%.

`Cc1nc(CN(C)Cc2cc3c(cc2OC(F)F)OCO3)oc1C`: the cytotoxicity at 70.5 h was found to be 4.89%. Consider `Cc1noc(CCCC(=O)N2CCCCC2CNS(C)(=O)=O)n1` (configuration not stated), for which the cytotoxicity at 70.5 h is -9.36%. Under `COc1cccc(CCC(=O)N2CCN(Cc3noc(C)n3)CC2)c1` stands -0.347%; under `CC(C)(C)OC(=O)NCC1CCCCN1Cc1ccncc1` (configuration not stated), -1.8%; under `CCn1c(C)nnc1CN(C)C1CCN(Cc2sc(C)nc2C)C1` (configuration not stated), 3.85%. For the compound `Cc1ccc(F)cc1NC(=O)CNc1cccc2c1CCCC2`, the cytotoxicity at 70.5 h is -7.64%. For `Cn1c(Nc2ccc(F)cc2)c(C#N)c(=O)n(C)c1=O`, the cytotoxicity at 70.5 h was -4.76%.

Regarding `COc1cc(Nc2c(C#N)c(=O)n(C)c(=O)n2C)cc(OC)c1`, the cytotoxicity at 70.5 h was -6.16%. Take `Cc1ccc(Nc2c(C#N)c(=O)n(C)c(=O)n2C)cc1F`: the cytotoxicity at 70.5 h was -4.93%. Turning to `CCC(CNC(=O)NCc1cc[nH]n1)N1CCCC1` (configuration not stated), the cytotoxicity at 70.5 h is -4.31%. For `CC(C)(C)OC(=O)NCC1CCCCN1Cc1cccnc1` (configuration not stated), the cytotoxicity at 70.5 h is -0.715%. Under `CC1CCCN(C(=O)Cn2cc(I)cn2)C1` (configuration not stated) stands -3.76%; under `CCC(C)(NCC(=O)NC(=O)NC)c1nc(C)cs1` (configuration not stated), -4.2%; under `COc1ccc(C(=O)Cn2cnnc2[S+](C)[O-])cc1Cl` (configuration not stated), -3.44%.

Regarding `Cc1ccc(NC(=O)NC(C)c2nc[nH]n2)cc1Cl` (configuration not stated), the cytotoxicity at 70.5 h was -3.17%. As for `C[S+]([O-])c1nncn1CC(=O)c1ccc(Br)cc1` (configuration not stated), the cytotoxicity at 70.5 h was -5.18%. Regarding `Cc1nn(C)c(N(C)C)c1CNCc1cnn(Cc2ccccc2)c1`, the cytotoxicity at 70.5 h is -2.79%. Then `O=C(NCc1ccccn1)NCC(c1ccco1)N1CCCC1` (configuration not stated), with -1.51%; and `Cc1nc(CN2CCN(C(=O)CCc3cccc(Cl)c3)CC2)no1`, with 13.5%; and `O=S(=O)(c1ccc(Cl)cc1)N1CCN(CCCn2ccnc2)CC1`, with -1.12%.

As for `Cc1nn(C)c(N(C)C)c1CNCc1cccc(Cl)c1`, the cytotoxicity at 70.5 h is 0.245%. As to `COc1ccc(CN(C)Cc2cccc(C#N)c2)c(OC)c1`, the cytotoxicity at 70.5 h was -3.94%. Regarding `O=C(NCc1ccc(N2CCCC2)nc1)N1CCc2sccc2C1`, the cytotoxicity at 70.5 h is -0.866%.

For `O=C(Nc1ccccn1)c1nc(N2CCCC2)ncc1Cl`, the cytotoxicity at 70.5 h was -6.57%. In the case of `COc1cc(CN(C)C(=O)NCc2cccc3c2OCO3)ccc1SC`, the cytotoxicity at 70.5 h is -6.35%. For the compound `COc1cc(CN(C)C(=O)NCc2nccs2)ccc1SC`, the cytotoxicity at 70.5 h was -6.87%. Then `Cc1ccc(C(=O)NCCNS(C)(=O)=O)c(=O)[nH]1`, with -3.54%; and `Cc1ccc(C(=O)NCCCS(C)(=O)=O)c(=O)[nH]1`, with 15.4%. Turning to `CCOCCCNC(=O)N(C)Cc1ccc(SC)c(OC)c1`, the cytotoxicity at 70.5 h came out at 1.54%. Then `O=C(c1cc2c([nH]c1=O)CCC2)N1CCCC1c1ccc(F)cc1` (configuration not stated), with -3.95%; and `COCCN(CCC#N)S(=O)(=O)c1cc(F)cc(F)c1`, with 3.86%. In the case of `COc1cc2c(cc1CNCc1ccnc(-n3cccn3)c1)OC(C)C2` (configuration not stated), the cytotoxicity at 70.5 h was -12.6%.
